How the values were obtained:
[1] = test system: RalA; assay: Activated RalA pull down in lung tissue of Mia-PaCa2 xenograft mice; format: in vivo, NRG mice; conditions: treated vs carrier treated xenograft mouse, FIG. 5
Protocol: Some compounds of Formula (I) suppress Ral GTP levels in vivo—FIG. 5 NRG mice were provided with s.c. xenografts of Mia-PaCa2 cells. Tissue from the lungs of a carrier treated xenograft mouse and a compound I-1 treated mouse were assayed for the levels of activated RalA using a pull down assay kit using the manufacter's protocol (Cat. #BK040 from Cytoskeleton, Inc., Denver Colo.).

[2] = test system: Ral; assay: Endogenous Ral activation in cells with endogenous hyper-activated Ras (RalBP1 pull down kit); format: cell-based; conditions: 10 μM, untransfected cells, FIG. 4
Protocol: Specific Inhibition of endogenous Ras/RalGEF signaling. FIG. 4. Specific suppression of Ral activation by some compounds of Formula (I). Cells with endogenous hyper-activated Ras were assayed for endogenous Ral activation in the presence or absence of inhibitor (10 μM) using a Cell Biolabs (SanDiego Calif.) kit. Compound I-1 was dissolved in DMSO; DMSO serves as the carrier negative control. IP is immunoprecipitation. IB is immunoblot. Cell lysates were then assayed for the levels of MAPK pathway activation using a phosphoERK antibody. They were the same. Actin is a loading control.
RalGEFs drive Ral into the active, GTP bound form so it can bind its effector RalBP1. […] Commercially available kits available from several vendors use RalBP1 attached to beads as an affinity reagent specific to the active form of Ral. By measuring the level of activated Ral and comparing it to the total levels of Ral, it is possible to measure the state of endogenous Ral activation. We assayed untransfected cells containing endogenous hyper-activated Ras for the effects of compound I-1 treatment on endogenous levels of active Ral levels.

[3] = test system: Panc-1; assay: Normal 2D growth on plastic; format: cell-based, human; conditions: normal 2D growth conditions on plastic, 1 week, FIG. 1C
Protocol: (§1) FIG. 1. Effects of some compounds of Formula (I) on RalGEF inhibitor on soft agar growth and normal growth in 2D of pancreatic carcinoma cell lines. In FIGS. 1A and 1B, Panc-1 (ATCC® CRL-1469™) and MiaPaCa-2 (ATCC® CRL-1420™) mutant Ras containing pancreatic tumor cell lines were plated in soft agar in the presence of 10 μM or 0.9 μM of compound I-1 and scored for the formation of colonies. In FIGS. 1C and 1D, compound I-1 was then tested for the ability to inhibit cell growth on the same cell lines under normal 2D growth conditions on plastic. “0” is the carrier. […]

[4] = test system: MiaPaCa-2; assay: Normal 2D growth on plastic; format: cell-based, human; conditions: normal 2D growth conditions on plastic, 1 week, FIG. 1D
Protocol: as §1

[5] = Preliminary in vivo toxicity; set-up: species or system mice; conditions: 25 mg/kg, ip injection over 2 weeks, data not shown
[6] = test system: Caov-3 [Caov3] (ovarian cancer); assay: Tumorigenic phenotype in vitro, Ras driven tumor cell line; format: cell-based; conditions: data not shown
Text: (§2) (ATCC® HTB-75™)(ovarian cancer); D283 Med (ATCC® HTB-185™) (Medulloblastoma); A549 (ATCC® CCL-185™) (lung cancer); and LNCaP clone FGC (ATCC® CRL1740™) (prostate cancer).

[7] = test system: LNCaP clone FGC (prostate cancer); assay: as above; format: cell-based; conditions: data not shown
Text: as §2

[8] = test system: A549 (lung cancer); assay: as above; format: cell-based; conditions: data not shown
Text: as §2

[9] = test system: D283 Med (Medulloblastoma); assay: as above; format: cell-based; conditions: data not shown
Text: as §2

[10] = test system: Panc-1; assay: Soft agar colony formation; format: cell-based, human
Protocol: FIG. 1. Effects of some compounds of Formula (I) on RalGEF inhibitor on soft agar growth and normal growth in 2D of pancreatic carcinoma cell lines. In FIGS. 1A and 1B, Panc-1 (ATCC® CRL-1469™) and MiaPaCa-2 (ATCC® CRL-1420™) mutant Ras containing pancreatic tumor cell lines were plated in soft agar in the presence of 10 μM or 0.9 μM of compound I-1 and scored for the formation of colonies. In FIGS. 1C and 1D, compound I-1 was then tested for the ability to inhibit cell growth on the same cell lines under normal 2D growth conditions on plastic. “0” is the carrier. Cells were seeded at the same density and scored after two weeks in culture.
Human pancreatic tumor cell lines MiaPaca-2 and Panc-1 contain activated K-Ras and were used in the initial screen to identify compound I-1. Soft agar colony formation remains an established in vitro assay to predict tumorigenicity and was used to predict tumorigenicity for compound I-1.

[11] = target: T1, interaction of K-Ras with RGL2 (Homo sapiens, UniProt O15211); assay: Ras/RalGEF binding, immunoprecipitation and immunoblot from co-transfected HEK-293 cells; conditions: 10 μM, HA K-Ras 12v and GFP-RGL2, IP/IB, FIG. 3B
T1 construct: expressed in transfected cells; host or cells: HEK-293
T1 sequence (O15211 1-777): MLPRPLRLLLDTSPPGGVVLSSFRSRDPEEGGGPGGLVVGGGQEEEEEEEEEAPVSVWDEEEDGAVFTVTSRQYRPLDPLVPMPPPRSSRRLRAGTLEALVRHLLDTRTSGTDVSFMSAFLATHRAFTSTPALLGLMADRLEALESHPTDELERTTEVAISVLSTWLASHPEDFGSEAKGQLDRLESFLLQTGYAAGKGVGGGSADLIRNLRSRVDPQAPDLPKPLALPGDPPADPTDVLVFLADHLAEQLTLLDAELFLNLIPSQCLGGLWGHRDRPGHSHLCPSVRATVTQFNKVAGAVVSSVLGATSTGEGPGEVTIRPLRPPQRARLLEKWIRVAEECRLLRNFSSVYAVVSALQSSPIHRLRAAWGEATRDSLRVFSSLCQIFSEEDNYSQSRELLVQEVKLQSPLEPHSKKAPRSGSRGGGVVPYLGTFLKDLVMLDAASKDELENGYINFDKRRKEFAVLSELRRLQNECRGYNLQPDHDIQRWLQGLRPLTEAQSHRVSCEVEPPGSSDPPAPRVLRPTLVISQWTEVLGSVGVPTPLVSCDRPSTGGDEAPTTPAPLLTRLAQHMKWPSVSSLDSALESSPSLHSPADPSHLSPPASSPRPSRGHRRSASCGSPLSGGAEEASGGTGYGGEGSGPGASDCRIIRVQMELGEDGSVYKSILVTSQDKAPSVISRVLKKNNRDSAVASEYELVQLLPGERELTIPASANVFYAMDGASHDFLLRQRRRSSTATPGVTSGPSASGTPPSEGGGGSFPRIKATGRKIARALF

## COc1cccc(CNc2nc(CN(C)Cc3cccc(OC)c3)nc3sc(C)c(C)c23)c1 [Compound I-1]
[1]
  levels of active RalA in lung tissue: reduced levels of active RalA
[2]
  levels of endogenous active Ral (GTP bound): suppressed the levels of endogenous active Ral
[3]
  cell growth in 2D: no reduction in growth
[4]
  cell growth in 2D: no reduction in growth
[5]
  deleterious effect on mice (behavior, weight): no obvious deleterious effect
[6]
  tumorigenic phenotype in vitro: blocks the tumorigenic phenotype in vitro
[7]
  tumorigenic phenotype in vitro: blocks the tumorigenic phenotype in vitro
[8]
  tumorigenic phenotype in vitro: blocks the tumorigenic phenotype in vitro
[9]
  tumorigenic phenotype in vitro: blocks the tumorigenic phenotype in vitro
[10]; 10 μM, FIG. 1A
  ability of the cells to grow in soft agar: almost completely blocked
[10]; FIG. 1A
  tumorigenic phenotype in vitro: blocks the tumorigenic phenotype in vitro at low μM or sub μM levels
[10]; Homo sapiens, PANC-1, soft agar, titration experiments, data not shown, read-out: IC50 (concentration that inhibits 50% of colony formation)
  IC50: < 1 µM
[11]
  inhibition of RGL2 (Ras/RGL2 interaction): also inhibited RGL2

Reference: US11312690B2, “Compounds, compositions, methods for treating diseases, and methods for preparing compounds” (UNIVERSITY OF LOUISVILLE RESEARCH FOUNDATION, INC., priority 2015, dated 2022)
